29 molecules from patent publication US7932270B2 (Cytokinetics, Inc., priority 2006, dated 2011) can be followed below.

This experiment has as its target T1, chicken gizzard smooth muscle myosin subfragment-1 chemically crosslinked to cardiac or skeletal actin (Gallus gallus, UniProt P10587).
T1 construct: chicken gizzard smooth muscle myosin subfragment-1; from tissue; host or cells: chicken gizzard
Kind of experiment: Smooth muscle myosin ATPase dose response assay (pyruvate kinase/horseradish peroxidase/pyruvate oxidase-coupled, amplex red fluorescence). The class given is biochemical. Conditions: read-out: IC50 Arithmetic Mean. In outline:
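Lead-optimization format: ATPase coupled via pyruvate kinase, pyruvate oxidase and peroxidase, pH 7.00 at 22° C, with 0.15 mM ATP, 100 mM KCl, 2 mM MgCl2, 2 mM phosphate and 0.1 mM amplex red (final). Crosslinked S1 titrated empirically for set hydrolysis rate; fluorescence (ex 480/em 615 nm) dose curves fit 4-parameter for IC50.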

T1 sequence (P02607 2-151): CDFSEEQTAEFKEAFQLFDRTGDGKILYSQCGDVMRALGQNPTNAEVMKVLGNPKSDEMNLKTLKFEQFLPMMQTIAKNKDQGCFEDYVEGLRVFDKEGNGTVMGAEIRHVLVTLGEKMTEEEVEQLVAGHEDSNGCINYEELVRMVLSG
T1 sequence (P10587 84-789): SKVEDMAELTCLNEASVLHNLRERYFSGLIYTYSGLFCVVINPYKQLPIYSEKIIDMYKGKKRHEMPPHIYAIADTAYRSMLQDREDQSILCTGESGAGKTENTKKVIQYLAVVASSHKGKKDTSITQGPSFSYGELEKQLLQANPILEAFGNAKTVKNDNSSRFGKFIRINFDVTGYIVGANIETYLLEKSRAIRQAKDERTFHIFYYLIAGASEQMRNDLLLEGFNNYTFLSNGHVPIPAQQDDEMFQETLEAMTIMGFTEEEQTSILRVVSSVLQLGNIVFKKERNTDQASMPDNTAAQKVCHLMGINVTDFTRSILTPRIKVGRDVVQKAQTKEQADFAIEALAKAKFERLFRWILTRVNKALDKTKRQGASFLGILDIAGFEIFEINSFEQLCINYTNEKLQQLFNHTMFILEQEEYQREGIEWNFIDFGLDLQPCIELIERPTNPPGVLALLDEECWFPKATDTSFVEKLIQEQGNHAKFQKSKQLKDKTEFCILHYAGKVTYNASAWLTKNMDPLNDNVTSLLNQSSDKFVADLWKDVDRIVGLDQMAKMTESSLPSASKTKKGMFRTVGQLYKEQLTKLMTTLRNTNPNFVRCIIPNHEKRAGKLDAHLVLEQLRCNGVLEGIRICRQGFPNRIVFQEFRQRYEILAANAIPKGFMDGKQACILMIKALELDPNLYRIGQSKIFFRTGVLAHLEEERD

What is called IC50 is the concentration that inhibits the measured activity by half. Consider `Cc1cc(C)cc(-c2ccc(C(=O)NCc3cccnc3)c(NCCc3ccccn3)n2)c1` [{6-(3,5-dimethylphenyl)-2-[(2-(2-pyridyl)ethyl)amino](3-pyridyl)}-N-(3-pyridylmethyl)carboxamide], for which the 50% inhibitory concentration (IC50) was found to be 10.1 µM.
Turning to `O=C(NCc1cccnc1)c1ccc(-c2cccc(Cl)c2)nc1NCCc1ccccn1` [{6-(3-chlorophenyl)-2-[(2-(2-pyridyl)ethyl)amino](3-pyridyl)}-N-(3-pyridylmethyl)carboxamide], the IC50 was 1.97 µM.
Consider `N#Cc1cccc(-c2ccc(C(=O)NCc3cccnc3)c(NCCc3ccccn3)n2)c1` [{6-(3-cyanophenyl)-2-[(2-(2-pyridyl)ethyl)amino](3-pyridyl)}-N-(3-pyridylmethyl)carboxamide], for which the IC50 is 2.99 µM.
With `O=C(NCc1cccnc1)c1ccc(-c2cccc(F)c2)nc1NCCc1ccccn1` [{6-(3-fluorophenyl)-2-[(2-(2-pyridyl)ethyl)amino](3-pyridyl)}-N-(3-pyridylmethyl)carboxamide] the figure was 0.915 µM; with `O=C(NCc1cccnc1)c1ccc(-c2cccc(O)c2)nc1NCCc1ccccn1` [{6-(3-hydroxyphenyl)-2-[(2-(2-pyridyl)ethyl)amino](3-pyridyl)}-N-(3-pyridylmethyl)carboxamide], 0.79 µM; with `COc1cccc(-c2ccc(C(=O)NCc3cccnc3)c(NCCc3ccccn3)n2)c1` [{6-(3-methoxyphenyl)-2-[(2-(2-pyridyl)ethyl)amino](3-pyridyl)}-N-(3-pyridylmethyl)carboxamide], 14.9 µM.
Regarding `Cc1cccc(-c2ccc(C(=O)NCc3cccnc3)c(NCCc3ccccn3)n2)c1` [{6-(3-methylphenyl)-2-[(2-(2-pyridyl)ethyl)amino](3-pyridyl)}-N-(3-pyridylmethyl)carboxamide], the IC50 worked out at 6.27 µM.
For the molecule `CC(=O)c1ccc(-c2ccc(C(=O)NCc3cccnc3)c(NCCc3ccccn3)n2)cc1` [{6-(4-acetylphenyl)-2-[(2-(2-pyridyl)ethyl)amino](3-pyridyl)}-N-(3-pyridylmethyl)carboxamide], the IC50 was found to be 2.13 µM.
With `O=C(NCc1cccnc1)c1ccc(-c2ccc(Cl)cc2)nc1NCCc1ccccn1` [{6-(4-chlorophenyl)-2-[(2-(2-pyridyl)ethyl)amino](3-pyridyl)}-N-(3-pyridylmethyl)carboxamide] the figure was 0.629 µM.
As for `N#Cc1ccc(-c2ccc(C(=O)NCc3cccnc3)c(NCCc3ccccn3)n2)cc1` [{6-(4-cyanophenyl)-2-[(2-(2-pyridyl)ethyl)amino](3-pyridyl)}-N-(3-pyridylmethyl)carboxamide], the IC50 amounted to 1.93 µM.
The result for `CCc1ccc(-c2ccc(C(=O)NCc3cccnc3)c(NCCc3ccccn3)n2)cc1` [{6-(4-ethylphenyl)-2-[(2-(2-pyridyl)ethyl)amino](3-pyridyl)}-N-(3-pyridylmethyl)carboxamide] reads 2.79 µM; that for `O=C(NCc1cccnc1)c1ccc(-c2ccc(F)cc2)nc1NCCc1ccccn1` [{6-(4-fluorophenyl)-2-[(2-(2-pyridyl)ethyl)amino](3-pyridyl)}-N-(3-pyridylmethyl)carboxamide], 1.05 µM.
As to `O=C(NCc1cccnc1)c1ccc(-c2ccc(O)cc2)nc1NCCc1ccccn1` [{6-(4-hydroxyphenyl)-2-[(2-(2-pyridyl)ethyl)amino](3-pyridyl)}-N-(3-pyridylmethyl)carboxamide], the IC50 worked out at 0.586 µM.
For the molecule `COc1ccc(-c2ccc(C(=O)NCc3cccnc3)c(NCCc3ccccn3)n2)cc1` [{6-(4-methoxyphenyl)-2-[(2-(2-pyridyl)ethyl)amino](3-pyridyl)}-N-(3-pyridylmethyl)carboxamide], the 50% inhibitory concentration (IC50) was found to be 1.06 µM.
As to `Cc1csc(-c2ccc(C(=O)NCc3cccnc3)c(NCCc3ccccn3)n2)c1` [{6-(4-methyl(2-thienyl))-2-[(2-(2-pyridyl)ethyl)amino](3-pyridyl)}-N-(3-pyridylmethyl)carboxamide], the IC50 worked out at 0.344 µM.
Consider `Cc1cscc1-c1ccc(C(=O)NCc2cccnc2)c(NCCc2ccccn2)n1` [{6-(4-methyl(3-thienyl))-2-[(2-(2-pyridyl)ethyl)amino](3-pyridyl)}-N-(3-pyridylmethyl)carboxamide], for which the IC50 amounted to 4.06 µM.
`Cc1ccc(-c2ccc(C(=O)NCc3cccnc3)c(NCCc3ccccn3)n2)cc1` [{6-(4-methylphenyl)-2-[(2-(2-pyridyl)ethyl)amino](3-pyridyl)}-N-(3-pyridylmethyl)carboxamide]: the IC50 was 0.677 µM.
Consider `COCc1ccccc1-c1ccc(C(=O)NCc2cccnc2)c(NCCc2ccccn2)n1` [{6-[2-(methoxymethyl)phenyl]-2-[(2-(2-pyridyl)ethyl)amino](3-pyridyl)}-N-(3-pyridylmethyl)carboxamide], for which the half-inhibitory concentration (IC50) was determined as 84.5 µM.
On to `CN(C)c1cccc(-c2ccc(C(=O)NCc3cccnc3)c(NCCc3ccccn3)n2)c1` [{6-[3-(dimethylamino)phenyl]-2-[(2-(2-pyridyl)ethyl)amino](3-pyridyl)}-N-(3-pyridylmethyl)carboxamide], for which the IC50 turned out to be 12.4 µM.
For `CN(C)c1ccc(-c2ccc(C(=O)NCc3cccnc3)c(NCCc3ccccn3)n2)cc1` [{6-[4-(dimethylamino)phenyl]-2-[(2-(2-pyridyl)ethyl)amino](3-pyridyl)}-N-(3-pyridylmethyl)carboxamide], the IC50 was 0.809 µM.
In the case of `O=C(NCc1cccnc1)c1ccc(-c2ccc(CO)cc2)nc1NCCc1ccccn1` [{6-[4-(hydroxymethyl)phenyl]-2-[(2-(2-pyridyl)ethyl)amino](3-pyridyl)}-N-(3-pyridylmethyl)carboxamide], the IC50 was 2.43 µM.
In the case of `O=C(Nc1ccccn1)c1ccc(-c2ccccc2)nc1NCCc1ccccn1` [{6-phenyl-2-[(2-(2-pyridyl)ethyl)amino](3-pyridyl)}-N-(2-pyridyl)carboxamide], the IC50 is 7.19 µM.
The result for `O=C(NCc1ccccn1)c1ccc(-c2ccccc2)nc1NCCc1ccccn1` [{6-phenyl-2-[(2-(2-pyridyl)ethyl)amino](3-pyridyl)}-N-(2-pyridylmethyl)carboxamide] reads 0.463 µM; that for `O=C(NCc1cccs1)c1ccc(-c2ccccc2)nc1NCCc1ccccn1` [{6-phenyl-2-[(2-(2-pyridyl)ethyl)amino](3-pyridyl)}-N-(2-thienylmethyl)carboxamide], 1.72 µM.
Turning to `O=C(Nc1cccnc1)c1ccc(-c2ccccc2)nc1NCCc1ccccn1` [{6-phenyl-2-[(2-(2-pyridyl)ethyl)amino](3-pyridyl)}-N-(3-pyridyl)carboxamide], the IC50 worked out at 5.37 µM.
Turning to `O=C(NCc1cccnc1)c1ccc(-c2ccccc2)nc1NCCc1ccccn1` [{6-phenyl-2-[(2-(2-pyridyl)ethyl)amino](3-pyridyl)}-N-(3-pyridylmethyl)carboxamide], the half-maximal inhibitory concentration (IC50) came to 0.512 µM.
With `O=C(NCc1ccsc1)c1ccc(-c2ccccc2)nc1NCCc1ccccn1` [{6-phenyl-2-[(2-(2-pyridyl)ethyl)amino](3-pyridyl)}-N-(3-thienylmethyl)carboxamide], the 50% inhibitory concentration (IC50) stood at 0.683 µM.
Consider `O=C(NCC1CCNCC1)c1ccc(-c2ccccc2)nc1NCCc1ccccn1` [{6-phenyl-2-[(2-(2-pyridyl)ethyl)amino](3-pyridyl)}-N-(4-piperidylmethyl)carboxamide], for which the IC50 was determined as 43.7 µM.
For `O=C(Nc1ccncc1)c1ccc(-c2ccccc2)nc1NCCc1ccccn1` [{6-phenyl-2-[(2-(2-pyridyl)ethyl)amino](3-pyridyl)}-N-(4-pyridyl)carboxamide], the 50% inhibitory concentration (IC50) amounted to 5.21 µM.
